This passage reports GI50 and TGI results from PubChem BioAssay (NCI).

“And” between values parts separate entries of the source, which are not always exact repeats. Equal entries are not always repeated.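 Assay format: 96-well plates, 48-hour exposure. The concentration for 50% growth inhibition is given as GI50. The concentration for full growth arrest is given as TGI.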 Bounds are passed on as bounds.

Test systems include SN12C renal; A498 renal; MCF7 breast; 786-0 renal; CAKI-1 renal; SF-295 CNS; HS 578T breast; KM12 colon; HCC-2998 colon; DU-145 prostate.
Holding throughout (test): NCI-60 cell line screen, 48 h

For `CC/C(=N/N=C(N)N)c1ccc(NC(=O)Nc2ccc(/C(CC)=N/N=C(N)N)cc2)cc1`, the GI50 was 3.16 µM with SN12C renal; 36.3 µM in the assay on A498 renal; 3.13 µM with MCF7 breast; 9.02 µM in the assay on 786-0 renal; 15.1 µM in the assay on CAKI-1 renal; 3.99 µM in the assay on SF-295 CNS. The GI50 in the assay on HS 578T breast was 22.6 µM; in the assay on KM12 colon, 3.49 µM; with HCC-2998 colon, 7.56 µM; in the assay with DU-145 prostate, 5.02 µM. In addition, the TGI with SN12C renal is 19.4 µM; in the assay on A498 renal, more than 100 µM; with MCF7 breast, more than 100 µM; with 786-0 renal, 30.9 µM; in the assay on CAKI-1 renal, 39.4 µM; with SF-295 CNS, 19 µM. Moreover, the TGI in the assay on HS 578T breast was more than 100 µM; with KM12 colon it was 20.1 µM; in the assay with HCC-2998 colon, 36.3 µM; in the assay with DU-145 prostate, 30.5 µM.

In the case of `O=C(Nc1ccccc1)Nc1ccc(Cl)c(Cl)c1`, the GI50 in the assay with SN12C renal is 3 µM; in the assay on A498 renal it was 5.04 µM; in the assay on MCF7 breast, 3.14 µM; in the assay on 786-0 renal it was 3.7 µM; with CAKI-1 renal it was 2.71 µM; in the assay with SF-295 CNS, 2.89 µM. Moreover, the GI50 with HS 578T breast is 2.9 µM; in the assay with KM12 colon, 2.64 µM; in the assay with HCC-2998 colon it was 4.03 µM; with DU-145 prostate, 3.69 µM. Further, the TGI with SN12C renal was more than 100 µM; in the assay with A498 renal it was 68.5 µM; in the assay with MCF7 breast, 73.3 µM; in the assay with 786-0 renal, more than 100 µM; with CAKI-1 renal, 24.7 µM; with SF-295 CNS it was 21.5 µM. Further, the TGI with HS 578T breast is 29 µM; in the assay with KM12 colon, 20.5 µM; in the assay with HCC-2998 colon, more than 100 µM; with DU-145 prostate, more than 100 µM.

With `O=C1NC(=N[C@H](CO)c2ccccc2)S/C1=C\c1ccc2ncccc2c1`, the GI50 was 5.02 µM in the assay with SN12C renal; 2.07 µM in the assay with A498 renal; 4.57 µM in the assay with MCF7 breast; 7.31 µM in the assay with 786-0 renal; 3.75 µM in the assay with CAKI-1 renal; 4.69 µM with SF-295 CNS. Further, the GI50 in the assay with HS 578T breast was 3.49 µM; with KM12 colon, 5.77 µM; in the assay with HCC-2998 colon it was 7.96 µM; in the assay on DU-145 prostate, 3.3 µM. Besides, the TGI in the assay with SN12C renal is more than 25 µM; in the assay with A498 renal, 7.13 µM; in the assay on MCF7 breast, more than 25 µM; in the assay on 786-0 renal, more than 25 µM; in the assay with CAKI-1 renal, more than 16 µM; in the assay with SF-295 CNS it was more than 20 µM. The TGI is more than 13.8 µM in the assay on HS 578T breast, more than 21.4 µM in the assay with KM12 colon, more than 25 µM with HCC-2998 colon and more than 21.3 µM in the assay on DU-145 prostate.

`COC1=CC2CCN3Cc4cc5c(cc4C(C1O)C23)OCC5` (configuration not stated): the GI50 in the assay with SN12C renal was 1.06 µM; in the assay on A498 renal, 17.7 µM; in the assay on MCF7 breast, 3.36 µM; in the assay on 786-0 renal, 2.47 µM; with CAKI-1 renal, 2.49 µM; in the assay on SF-295 CNS, 3.88 µM. For the same compound, the GI50 was 5.7 µM with HS 578T breast, 3.06 µM in the assay on KM12 colon, 1.09 µM with HCC-2998 colon and 2.56 µM in the assay with DU-145 prostate. Moreover, the TGI was 6.08 µM in the assay with SN12C renal; 98.8 µM in the assay on A498 renal; more than 100 µM in the assay on MCF7 breast; more than 61.9 µM with 786-0 renal; 8.36 µM with CAKI-1 renal; 24.4 µM in the assay on SF-295 CNS. The TGI with HS 578T breast was more than 32.7 µM; in the assay on KM12 colon, 30.3 µM; in the assay with HCC-2998 colon, 7.37 µM; with DU-145 prostate, 21.2 µM.

On to `CC[C@@]1(O)C(=O)NCc2c1cc1n(c2=O)Cc2cc3c(NC(C)=O)cccc3nc2-1`, for which the GI50 in the assay with SN12C renal, in the assay on A498 renal, in the assay with MCF7 breast, with 786-0 renal, with CAKI-1 renal and in the assay with SF-295 CNS was more than 100 µM each time. Further, the GI50 in the assay on HS 578T breast, in the assay on KM12 colon, in the assay with HCC-2998 colon and with DU-145 prostate was more than 100 µM in each case. The TGI in the assay on SN12C renal, in the assay on A498 renal, in the assay with MCF7 breast, with 786-0 renal, with CAKI-1 renal and in the assay with SF-295 CNS was more than 100 µM in each case. For the same compound, the TGI in the assay on HS 578T breast, in the assay with KM12 colon, in the assay with HCC-2998 colon and with DU-145 prostate was more than 100 µM each time.

In the case of `COC(=O)c1ccc2c(C(=Nc3ccc(N(C)C(=O)CN4CCN(C)CC4)cc3)c3ccccc3)c(O)[nH]c2c1`, the GI50 was 1.23 µM and 0.959 µM in the assay on SN12C renal; 0.613 µM and 0.604 µM in the assay on A498 renal; 1.55 µM and 4.48 µM with MCF7 breast; 1.93 µM and 1.47 µM in the assay with 786-0 renal; 4.28 µM and 11.9 µM in the assay on CAKI-1 renal; 4.46 µM and 10.8 µM in the assay on SF-295 CNS. Besides, the GI50 was 0.546 µM and 0.648 µM in the assay on HS 578T breast; 0.066 µM and 0.073 µM with KM12 colon; 11.2 µM and 7.26 µM in the assay with HCC-2998 colon; 3.22 µM and 6.14 µM in the assay with DU-145 prostate. Besides, the TGI with SN12C renal was 31.9 µM and > 87.6 µM; with A498 renal, 5.52 µM and 10.1 µM; in the assay with MCF7 breast it was 13.6 µM and > 100 µM; with 786-0 renal, 6.6 µM and 4.64 µM; in the assay on CAKI-1 renal, 25.3 µM and > 100 µM; in the assay on SF-295 CNS, 13.1 µM and > 56.9 µM. The TGI is 2.05 µM and 1.98 µM in the assay with KM12 colon; 30.7 µM and 73.8 µM with HCC-2998 colon; 14.9 µM and > 100 µM with DU-145 prostate.

Consider `Cc1cn2c(/C=C3/C(=O)Nc4ccc(Cl)cc43)c(C)nc2s1`, for which the TGI in the assay with SN12C renal was 65 µM; in the assay with A498 renal it was 0.645 µM; in the assay on MCF7 breast, more than 100 µM; in the assay with 786-0 renal, 31.1 µM; with SF-295 CNS, 2.65 µM; with HS 578T breast it was 0.852 µM. Further, the TGI is 24 µM in the assay on KM12 colon, 1.04 µM with HCC-2998 colon and more than 39.3 µM in the assay with DU-145 prostate. In addition, the GI50 in the assay with A498 renal is 0.1 µM; in the assay on MCF7 breast, 1.57 µM; with 786-0 renal it was less than 0.0403 µM; in the assay on CAKI-1 renal, 0.741 µM; in the assay with SF-295 CNS, 0.871 µM; in the assay on HS 578T breast, 0.222 µM. Further, the figures for the GI50 in the assay with KM12 colon, with HCC-2998 colon and with DU-145 prostate were 1.17 µM, less than 0.024 µM and 0.84 µM, respectively.

As to `Cc1cc2c(cc1Cl)N1C(=O)NS(=O)(=O)N=C1NS2(=O)=O`, the GI50 in the assay on SN12C renal, in the assay on A498 renal, in the assay with MCF7 breast, with 786-0 renal, with CAKI-1 renal and in the assay with SF-295 CNS was more than 100 µM each time. The GI50 in the assay on HS 578T breast, in the assay with KM12 colon, with HCC-2998 colon and in the assay on DU-145 prostate was more than 100 µM throughout. Further, the TGI in the assay with SN12C renal, with A498 renal, in the assay with MCF7 breast, in the assay on 786-0 renal, with CAKI-1 renal and in the assay with SF-295 CNS was more than 100 µM in each case. For the same compound, the TGI in the assay with HS 578T breast, with KM12 colon, in the assay with HCC-2998 colon and in the assay on DU-145 prostate was more than 100 µM throughout.
